Common to all, as to type: functional
Test [1] concerns Haemophilus influenzae. Briefly: Antimicrobial activity against Haemophilus influenzae Rd KW20 by broth microdilution method. (In general: In broth dilution the organism is exposed to a series of concentrations in liquid medium.)
The subject of test [2] is Haemophilus influenzae. Kind of test: Antimicrobial activity against Haemophilus influenzae Rd KW20 harboring with plasmid pB1000 bearing beta-lactamase ROB-1 by broth microdilution method.
In test [3] the test system is Haemophilus influenzae. Briefly: Antimicrobial activity against ampicillin resistant nontypeable Haemophilus influenzae isolate BB1050 harboring with plasmid pB1000 bearing beta-lactamase ROB-1 by broth microdilution method.
Test [4] deals with Haemophilus influenzae. Briefly: Antimicrobial activity against ampicillin resistant nontypeable Haemophilus influenzae isolate BB1051 harboring with plasmid pB1000 bearing beta-lactamase ROB-1 by broth microdilution method.
Test [5] deals with Haemophilus influenzae. Kind of test: Antimicrobial activity against ampicillin resistant nontypeable Haemophilus influenzae isolate BB1052 harboring with plasmid pB1000 bearing beta-lactamase ROB-1 by broth microdilution method.
Test [6] concerns Haemophilus influenzae. Kind of test: Antimicrobial activity against ampicillin resistant serotype-e Haemophilus influenzae isolate BB1053 harboring with plasmid pB1000 bearing beta-lactamase ROB-1 by broth microdilution method.

In brackets after ≈: the same amount, converted by molar mass.

Turning to `C=CC1=C(C(=O)O)N2C(=O)[C@@H](NC(=O)/C(=N\OCC(=O)O)c3csc(N)n3)[C@H]2SC1` [CEFIXIME], the MIC against Haemophilus influenzae [1] is ≤ 0.03 µg/mL; in the test with Haemophilus influenzae [2], 0.06 µg/mL (≈ 0.132 µM); against Haemophilus influenzae [3] it was 0.06 µg/mL (≈ 0.132 µM); in the test on Haemophilus influenzae [4], 0.06 µg/mL (≈ 0.132 µM); in the test on Haemophilus influenzae [5], ≤ 0.03 µg/mL; against Haemophilus influenzae [6], 0.06 µg/mL (≈ 0.132 µM).

As to `CO/N=C(\C(=O)N[C@@H]1C(=O)N2C(C(=O)O)=C(COC(N)=O)CS[C@H]12)c1ccco1` [CEFUROXIME], the MIC with Haemophilus influenzae [1] was determined as 0.5 µg/mL (≈ 1.18 µM); in the test with Haemophilus influenzae [2], 4 µg/mL (≈ 9.43 µM); with Haemophilus influenzae [3], 4 µg/mL (≈ 9.43 µM); against Haemophilus influenzae [4], 4 µg/mL (≈ 9.43 µM); in the test on Haemophilus influenzae [5], 4 µg/mL (≈ 9.43 µM); in the test on Haemophilus influenzae [6] it was 4 µg/mL (≈ 9.43 µM).

Turning to `CC1(C)S[C@@H]2[C@H](NC(=O)[C@H](N)c3ccccc3)C(=O)N2[C@H]1C(=O)O` [AMPICILLIN], the MIC in the test with Haemophilus influenzae [1] was ≤ 0.25 µg/mL; with Haemophilus influenzae [2], > 128 µg/mL; in the test on Haemophilus influenzae [3], > 128 µg/mL; against Haemophilus influenzae [4] it was > 128 µg/mL; in the test on Haemophilus influenzae [5], > 128 µg/mL; in the test with Haemophilus influenzae [6], > 128 µg/mL.

For the compound `CC1(C)S[C@@H]2[C@H](NC(=O)Cc3ccccc3)C(=O)N2[C@H]1C(=O)O` [PENICILLIN G], the MIC with Haemophilus influenzae [1] was 0.5 µg/mL (≈ 1.5 µM); in the test on Haemophilus influenzae [2] it was > 256 µg/mL; with Haemophilus influenzae [3] it was > 256 µg/mL; against Haemophilus influenzae [4], > 256 µg/mL; with Haemophilus influenzae [5], > 256 µg/mL; against Haemophilus influenzae [6], > 256 µg/mL.

With `C[C@H]1[C@H](NC(=O)/C(=N\OC(C)(C)C(=O)O)c2csc(N)n2)C(=O)N1S(=O)(=O)O` [AZTREONAM], the MIC with Haemophilus influenzae [1], against Haemophilus influenzae [2], with Haemophilus influenzae [3], with Haemophilus influenzae [4], against Haemophilus influenzae [5] and against Haemophilus influenzae [6] was ≤ 0.12 µg/mL in each case.

For `N[C@@H](C(=O)N[C@@H]1C(=O)N2C(C(=O)O)=C(Cl)CS[C@H]12)c1ccccc1` [CEFACLOR ANHYDROUS], the MIC against Haemophilus influenzae [1] is 1 µg/mL (≈ 2.72 µM); against Haemophilus influenzae [2], 64 µg/mL (≈ 174 µM); in the test with Haemophilus influenzae [3], 64 µg/mL (≈ 174 µM); in the test on Haemophilus influenzae [4] it was 64 µg/mL (≈ 174 µM); against Haemophilus influenzae [5], 64 µg/mL (≈ 174 µM); against Haemophilus influenzae [6], 64 µg/mL (≈ 174 µM).

`CC1(C)S[C@@H]2[C@H](NC(=O)[C@H](N)c3ccc(O)cc3)C(=O)N2[C@H]1C(=O)O` [AMOXICILLIN]: the MIC was ≤ 0.5 µg/mL against Haemophilus influenzae [1]; > 64 µg/mL in the test with Haemophilus influenzae [2]; > 64 µg/mL against Haemophilus influenzae [3]; > 64 µg/mL in the test on Haemophilus influenzae [4]; > 64 µg/mL against Haemophilus influenzae [5]; > 64 µg/mL in the test on Haemophilus influenzae [6].

Take `CO/N=C(\C(=O)N[C@@H]1C(=O)N2C(C(=O)O)=C(COC(C)=O)CS[C@H]12)c1csc(N)n1` [CEFOTAXIME]: the MIC in the test on Haemophilus influenzae [1] was ≤ 0.03 µg/mL; in the test with Haemophilus influenzae [3], 0.06 µg/mL (≈ 0.132 µM); in the test with Haemophilus influenzae [4], ≤ 0.03 µg/mL; in the test on Haemophilus influenzae [5], ≤ 0.03 µg/mL; in the test on Haemophilus influenzae [6], ≤ 0.03 µg/mL.

For `C[C@@H](O)[C@H]1C(=O)N2C(C(=O)O)=C(SCCNC=N)C[C@H]12` [IMIPENEM ANHYDROUS], the MIC against Haemophilus influenzae [1] came out at 0.5 µg/mL (≈ 1.67 µM); against Haemophilus influenzae [2] it was 1 µg/mL (≈ 3.34 µM); with Haemophilus influenzae [3], 2 µg/mL (≈ 6.68 µM); in the test with Haemophilus influenzae [4] it was 0.5 µg/mL (≈ 1.67 µM); with Haemophilus influenzae [5] it was 1 µg/mL (≈ 3.34 µM); in the test with Haemophilus influenzae [6], 0.5 µg/mL (≈ 1.67 µM).

Source of the values: ChEMBL document CHEMBL1255399, “Haemophilus influenzae clinical isolates with plasmid pB1000 bearing blaROB-1: fitness cost and interspecies dissemination” (2010).
